{
  "source": "paper PMC8292455",
  "about": "“Kinetic characterisation and inhibitor sensitivity of Candida albicans and Candida auris recombinant AOX expressed in a self-assembled proteoliposome system” (Scientific Reports, 2021)",
  "molecules": {"B1": {"name": "C. albicans AOX2 (Candida albicans) (protein)", "chain": "SSTLATPPHSTTTTSPSSPAFHQPNHPQQFANPNTSVFDVSTRIYTQEGIDNNNDTKFLTKAPYPHPVFPQDECENVTVTHRETKTLGDKISFRSIQFMRQCFDLVTGYAVPKTNNPDEFKGTRWEMTEGKWLTRCIFLESVAGVPGSVAGFLRHLHSLRMLRRDKAWIETLLDEAYNERMHLLTFIKIGKPSWFTRSIIYVGQGVFTNVFFLLYLLNPRYCHRFVGYLEEEAVRTYSHLLDELAVPGKLPAFETMKIPEVAVQYWPELTPKSSFKDLILRIRADEAKHREVNHTFANLEQKTDRNPFALKIEGLNKPQPNHGINVMRPTGWEKQDLQL", "notes": "twin-strep tag (pET15b.TS, pTS.CalbAOX2) kept; from E. coli FN102; in self-assembled proteoliposomes"}},
  "key": {"C. auris AOX [1]": {"biological_target": "T1, C. auris AOX (Candidozyma auris, UniProt A0A0L0NPQ3)", "T1 construct": "twin-strep tag (pET15b.TS, pTS.CaAOX) kept; from E. coli FN102; in self-assembled proteoliposomes", "T1 sequence (A0A0L0NPQ3 25-333 limits assumed)": "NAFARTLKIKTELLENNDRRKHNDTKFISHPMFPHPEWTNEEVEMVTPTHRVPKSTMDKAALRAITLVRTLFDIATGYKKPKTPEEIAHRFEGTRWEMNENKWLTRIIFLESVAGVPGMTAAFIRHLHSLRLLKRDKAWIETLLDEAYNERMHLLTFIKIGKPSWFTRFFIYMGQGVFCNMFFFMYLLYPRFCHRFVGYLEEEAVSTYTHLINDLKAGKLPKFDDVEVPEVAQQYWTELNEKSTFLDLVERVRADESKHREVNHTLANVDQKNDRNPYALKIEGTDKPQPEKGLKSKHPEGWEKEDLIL", "test": "NADH oxidation at […] nm in NDH-2/AOX proteoliposomes, dose-response", "type": "biochemical"}, "C. albicans AOX2 [2]": {"biological_target": "T2, C. albicans AOX2 (Candida albicans, UniProt Q9UV71)", "T2 construct": "twin-strep tag (pET15b.TS, pTS.CalbAOX2) kept; from E. coli FN102; in self-assembled proteoliposomes", "T2 sequence (Q9UV71 27-365)": "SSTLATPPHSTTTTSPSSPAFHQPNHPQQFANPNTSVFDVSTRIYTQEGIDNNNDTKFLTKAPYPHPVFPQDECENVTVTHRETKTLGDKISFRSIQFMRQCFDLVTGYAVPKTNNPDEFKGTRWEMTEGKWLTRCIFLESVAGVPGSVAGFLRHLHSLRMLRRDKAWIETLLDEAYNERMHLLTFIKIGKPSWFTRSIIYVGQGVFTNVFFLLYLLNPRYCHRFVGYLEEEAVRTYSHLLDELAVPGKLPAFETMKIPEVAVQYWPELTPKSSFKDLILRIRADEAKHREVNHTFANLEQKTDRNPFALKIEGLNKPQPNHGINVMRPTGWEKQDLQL", "test": "NADH oxidation at […] nm in NDH-2/AOX proteoliposomes, dose-response", "type": "biochemical"}, "NDH-2": {"biological_target": "T3, NDH-2 (Caldalkalibacillus thermarum, UniProt F5L3B8)", "T3 construct": "gene CathTA2_0279; His-tagged, from E. coli C41 (plasmid pTRCndh2); predicted mass 44 kDa", "T3 sequence (F5L3B8 1-399)": "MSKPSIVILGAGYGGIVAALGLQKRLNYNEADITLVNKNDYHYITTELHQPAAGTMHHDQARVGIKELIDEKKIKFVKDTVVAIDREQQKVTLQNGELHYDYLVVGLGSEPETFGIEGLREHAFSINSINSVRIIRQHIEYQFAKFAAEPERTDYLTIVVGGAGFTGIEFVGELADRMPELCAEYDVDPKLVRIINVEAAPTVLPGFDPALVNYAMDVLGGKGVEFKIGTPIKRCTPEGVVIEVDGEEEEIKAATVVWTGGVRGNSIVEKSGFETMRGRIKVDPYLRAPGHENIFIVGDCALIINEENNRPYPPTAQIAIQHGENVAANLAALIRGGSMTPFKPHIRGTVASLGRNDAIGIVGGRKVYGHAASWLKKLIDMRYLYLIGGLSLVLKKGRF", "test": "NADH oxidation at […] nm", "type": "biochemical", "settings": "50 mM MOPS pH 7.5, 250 uM Q1, 300 uM NADH"}, "C. albicans AOX2 [3]": {"biological_target": "T2, C. albicans AOX2", "test": "oxygen consumption of NDH-2/AOX proteoliposomes (Oroboros oxygraph), dose-response", "type": "biochemical"}, "C. auris AOX [4]": {"biological_target": "T1, C. auris AOX", "test": "oxygen consumption of NDH-2/AOX proteoliposomes (Oroboros oxygraph), dose-response", "type": "biochemical"}, "[5]": {"system": "COc1c(O)c(C)c(C/C=C(\\C)CC/C=C(\\C)CC/C=C(\\C)CC/C=C(\\C)CC/C=C(\\C)CC/C=C(\\C)CC/C=C(\\C)CC/C=C(\\C)CC/C=C(\\C)CCC=C(C)C)c(O)c1OC", "test": "purified protein", "settings": "65 mM MOPS pH 7.5, 300 uM NADH, excess NDH-2, Q10 concentration in the lipid phase"}, "purified protein": {"substrate": "COc1c(O)c(C)c(C/C=C(\\C)CC/C=C(\\C)CC/C=C(\\C)CC/C=C(\\C)CC/C=C(\\C)CC/C=C(\\C)CC/C=C(\\C)CC/C=C(\\C)CC/C=C(\\C)CCC=C(C)C)c(O)c1OC", "test": "purified protein", "type": "biochemical, Candida albicans", "settings": "65 mM MOPS pH 7.5, 300 uM NADH, excess NDH-2, Q10 concentration in the lipid phase"}},
  "data": [
    {"molecule": "C/C(=C\\Cc1c(O)c(Cl)c(C)c(C=O)c1O)CC/C=C(\\C)[C@@H]1CC(=O)C(C)(C)O1", "note": "[AF, Ascofuranone]", "values": [
      {"measurement": "IC50", "setting": "C. auris AOX [1]", "result": "129 ± 18", "unit": "nM"},
      {"measurement": "IC50", "setting": "C. albicans AOX2 [2]", "result": "213 ± 27", "unit": "nM"}
    ]},
    {"molecule": "CC(C)=CCC/C(C)=C/Cc1c(O)c(Cl)c(C)c(C=O)c1O", "note": "[CB, colletochlorin B]", "values": [
      {"measurement": "IC50", "setting": "C. auris AOX [1]", "result": "55 ± 10", "unit": "nM"},
      {"measurement": "IC50", "setting": "C. albicans AOX2 [2]", "result": "53 ± 16", "unit": "nM"}
    ]},
    {"molecule": "NC(=O)C1=CN([C@@H]2O[C@H](COP(=O)(O)OP(=O)(O)OC[C@H]3O[C@@H](n4cnc5c(N)ncnc54)[C@H](O)[C@@H]3O)[C@@H](O)[C@H]2O)C=CC1", "note": "[NADH]", "values": [
      {"measurement": "NADH oxidation at 340 nm", "setting": "NDH-2", "result": "measured spectrophotometrically by measuring the oxidation of NADH at A340 nm"}
    ]},
    {"molecule": "O=C(NO)c1ccccc1O", "note": "[SHAM]", "values": [
      {"measurement": "IC50", "setting": "C. albicans AOX2 [3]", "result": "3.5 ± 0.7", "unit": "mM"},
      {"measurement": "IC50", "setting": "C. auris AOX [4]", "result": "5 ± 0.6", "unit": "mM"}
    ]},
    {"molecule": "C. auris AOX (Candidozyma auris)", "values": [
      {"measurement": "Km", "setting": "[5]", "result": "7.3 ± 1.4", "unit": "mM"},
      {"measurement": "kcat", "setting": "[5]", "result": "108 ± 3", "unit": "s⁻¹"}
    ]},
    {"molecule": "B1", "values": [
      {"measurement": "Km", "setting": "purified protein", "result": "6.3 ± 1.3", "unit": "mM"},
      {"measurement": "kcat", "setting": "purified protein", "result": "404 ± 51", "unit": "s⁻¹"}
    ]}
  ]
}
